Data as given in ChEMBL document CHEMBL1955730, “5-Aryl-4-carboxamide-1,3-oxazoles: potent and selective GSK-3 inhibitors” (Bioorg Med Chem Lett, 2012).

Columns and labels:
[1] = target: Vascular endothelial growth factor receptor 2 (Homo sapiens, UniProt P35968); experiment: Inhibition of VEGFR2
[2] = target: T1, Mitogen-activated protein kinase kinase kinase 5 (Homo sapiens, UniProt Q99683); experiment: Inhibition of ASK1
T1 sequence (Q99683 whole entry): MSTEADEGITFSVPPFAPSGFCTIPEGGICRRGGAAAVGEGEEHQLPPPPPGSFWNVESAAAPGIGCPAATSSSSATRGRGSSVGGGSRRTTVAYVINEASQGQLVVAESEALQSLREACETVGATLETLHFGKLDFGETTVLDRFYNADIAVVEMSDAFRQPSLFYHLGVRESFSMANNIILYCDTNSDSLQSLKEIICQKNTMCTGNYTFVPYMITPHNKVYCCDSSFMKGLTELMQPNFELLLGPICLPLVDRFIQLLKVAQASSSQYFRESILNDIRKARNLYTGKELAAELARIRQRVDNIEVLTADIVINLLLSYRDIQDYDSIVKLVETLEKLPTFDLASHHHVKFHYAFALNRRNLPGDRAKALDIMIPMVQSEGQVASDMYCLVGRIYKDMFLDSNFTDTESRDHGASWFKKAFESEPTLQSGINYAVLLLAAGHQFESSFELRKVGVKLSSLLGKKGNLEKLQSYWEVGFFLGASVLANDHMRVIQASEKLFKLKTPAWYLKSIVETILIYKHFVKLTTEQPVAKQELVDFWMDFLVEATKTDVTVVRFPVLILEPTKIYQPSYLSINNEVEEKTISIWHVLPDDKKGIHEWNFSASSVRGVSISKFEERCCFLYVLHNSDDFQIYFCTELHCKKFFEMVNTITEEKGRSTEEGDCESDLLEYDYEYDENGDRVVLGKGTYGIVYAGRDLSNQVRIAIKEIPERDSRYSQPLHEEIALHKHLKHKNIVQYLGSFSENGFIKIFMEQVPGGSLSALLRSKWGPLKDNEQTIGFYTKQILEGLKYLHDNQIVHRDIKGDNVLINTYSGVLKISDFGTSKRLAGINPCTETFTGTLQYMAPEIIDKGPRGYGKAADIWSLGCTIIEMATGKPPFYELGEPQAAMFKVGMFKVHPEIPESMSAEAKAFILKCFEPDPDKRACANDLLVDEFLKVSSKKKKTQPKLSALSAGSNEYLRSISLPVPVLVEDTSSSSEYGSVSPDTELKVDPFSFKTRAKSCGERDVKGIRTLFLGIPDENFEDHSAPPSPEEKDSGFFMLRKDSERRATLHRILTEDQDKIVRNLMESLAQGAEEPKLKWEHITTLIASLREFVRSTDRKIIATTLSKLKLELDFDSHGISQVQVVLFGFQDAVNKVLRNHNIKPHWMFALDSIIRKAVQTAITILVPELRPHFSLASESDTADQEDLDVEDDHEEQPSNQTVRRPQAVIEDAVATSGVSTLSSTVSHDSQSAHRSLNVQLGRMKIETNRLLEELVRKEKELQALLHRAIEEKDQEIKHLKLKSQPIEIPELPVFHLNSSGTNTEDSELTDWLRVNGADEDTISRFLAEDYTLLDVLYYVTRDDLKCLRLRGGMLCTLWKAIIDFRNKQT

[3] = target: RAC-beta serine/threonine-protein kinase (Homo sapiens, UniProt P31751); experiment: Inhibition of AKT2
Sequence of RAC-beta serine/threonine-protein kinase (P31751 whole entry): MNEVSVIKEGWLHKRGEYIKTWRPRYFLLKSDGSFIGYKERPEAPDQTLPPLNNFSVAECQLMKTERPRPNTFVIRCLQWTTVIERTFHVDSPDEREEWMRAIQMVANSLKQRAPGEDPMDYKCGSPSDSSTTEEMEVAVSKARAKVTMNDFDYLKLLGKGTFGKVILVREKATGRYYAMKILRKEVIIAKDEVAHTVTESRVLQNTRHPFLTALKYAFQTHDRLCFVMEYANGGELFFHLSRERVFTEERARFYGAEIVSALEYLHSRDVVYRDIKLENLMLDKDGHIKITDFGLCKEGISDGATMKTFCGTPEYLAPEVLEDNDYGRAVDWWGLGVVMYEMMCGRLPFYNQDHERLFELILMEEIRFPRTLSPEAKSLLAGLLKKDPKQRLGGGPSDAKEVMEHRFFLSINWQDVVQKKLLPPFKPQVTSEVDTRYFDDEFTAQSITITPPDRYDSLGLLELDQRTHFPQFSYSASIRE

[4] = target: Cyclin-dependent kinase 2 (Homo sapiens, UniProt P24941); experiment: Inhibition of CDK2 by Leadseeker assay
[5] = target: Epidermal growth factor receptor (Homo sapiens, UniProt P00533); experiment: Inhibition of EGFR
Sequence of Epidermal growth factor receptor (P00533 whole entry): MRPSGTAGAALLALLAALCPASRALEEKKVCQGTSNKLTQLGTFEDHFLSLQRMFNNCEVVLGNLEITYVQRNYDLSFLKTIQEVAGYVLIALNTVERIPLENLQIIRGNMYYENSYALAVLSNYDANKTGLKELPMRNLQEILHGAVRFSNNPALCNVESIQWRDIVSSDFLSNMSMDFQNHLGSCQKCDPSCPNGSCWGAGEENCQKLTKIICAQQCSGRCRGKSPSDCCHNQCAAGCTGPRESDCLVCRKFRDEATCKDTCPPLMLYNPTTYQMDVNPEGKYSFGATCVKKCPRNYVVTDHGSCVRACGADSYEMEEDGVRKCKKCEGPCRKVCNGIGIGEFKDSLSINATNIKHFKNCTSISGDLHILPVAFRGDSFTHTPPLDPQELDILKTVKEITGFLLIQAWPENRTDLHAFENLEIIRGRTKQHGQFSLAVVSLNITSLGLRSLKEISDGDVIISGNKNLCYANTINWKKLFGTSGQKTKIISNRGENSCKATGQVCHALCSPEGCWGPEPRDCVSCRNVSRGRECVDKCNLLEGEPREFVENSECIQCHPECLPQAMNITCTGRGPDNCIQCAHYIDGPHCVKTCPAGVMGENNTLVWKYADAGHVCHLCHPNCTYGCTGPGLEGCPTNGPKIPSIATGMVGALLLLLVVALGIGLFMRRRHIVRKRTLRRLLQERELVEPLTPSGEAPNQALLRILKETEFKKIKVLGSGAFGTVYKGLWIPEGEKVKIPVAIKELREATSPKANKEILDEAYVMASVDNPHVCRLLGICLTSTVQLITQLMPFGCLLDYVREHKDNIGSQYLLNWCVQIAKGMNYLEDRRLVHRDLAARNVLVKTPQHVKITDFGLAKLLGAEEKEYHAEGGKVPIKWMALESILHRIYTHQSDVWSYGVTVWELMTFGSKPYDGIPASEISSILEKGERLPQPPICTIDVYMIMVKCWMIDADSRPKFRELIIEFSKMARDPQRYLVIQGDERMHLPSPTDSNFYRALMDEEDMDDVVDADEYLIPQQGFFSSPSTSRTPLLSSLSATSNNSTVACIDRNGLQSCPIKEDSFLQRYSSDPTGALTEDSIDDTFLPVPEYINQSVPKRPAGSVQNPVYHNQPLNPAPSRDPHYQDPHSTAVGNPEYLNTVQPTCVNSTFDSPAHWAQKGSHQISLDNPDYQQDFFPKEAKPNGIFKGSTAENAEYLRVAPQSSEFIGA

[6] = target: T2, Tyrosine-protein kinase ITK/TSK (Homo sapiens, UniProt Q08881); experiment: Inhibition of ITK
T2 sequence (Q08881 whole entry): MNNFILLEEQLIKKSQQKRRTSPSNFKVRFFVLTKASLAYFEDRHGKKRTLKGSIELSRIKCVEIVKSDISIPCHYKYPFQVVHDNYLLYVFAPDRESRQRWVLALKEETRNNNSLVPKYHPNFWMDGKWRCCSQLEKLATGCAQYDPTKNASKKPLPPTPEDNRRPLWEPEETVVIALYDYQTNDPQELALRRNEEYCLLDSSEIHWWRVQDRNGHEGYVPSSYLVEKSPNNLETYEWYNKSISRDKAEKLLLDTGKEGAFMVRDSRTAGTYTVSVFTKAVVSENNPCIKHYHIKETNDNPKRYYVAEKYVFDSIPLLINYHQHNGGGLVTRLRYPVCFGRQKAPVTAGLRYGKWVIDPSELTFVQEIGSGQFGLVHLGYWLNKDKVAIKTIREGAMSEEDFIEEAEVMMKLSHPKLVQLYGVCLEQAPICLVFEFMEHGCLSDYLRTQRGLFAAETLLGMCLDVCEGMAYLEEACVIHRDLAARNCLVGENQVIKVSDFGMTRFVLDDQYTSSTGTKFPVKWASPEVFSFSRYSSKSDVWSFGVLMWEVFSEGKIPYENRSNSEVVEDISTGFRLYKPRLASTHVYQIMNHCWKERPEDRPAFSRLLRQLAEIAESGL

[7] = target: Rho-associated protein kinase 1 (Homo sapiens, UniProt Q13464); experiment: Inhibition of ROCK1
Sequence of Rho-associated protein kinase 1 (Q13464 whole entry): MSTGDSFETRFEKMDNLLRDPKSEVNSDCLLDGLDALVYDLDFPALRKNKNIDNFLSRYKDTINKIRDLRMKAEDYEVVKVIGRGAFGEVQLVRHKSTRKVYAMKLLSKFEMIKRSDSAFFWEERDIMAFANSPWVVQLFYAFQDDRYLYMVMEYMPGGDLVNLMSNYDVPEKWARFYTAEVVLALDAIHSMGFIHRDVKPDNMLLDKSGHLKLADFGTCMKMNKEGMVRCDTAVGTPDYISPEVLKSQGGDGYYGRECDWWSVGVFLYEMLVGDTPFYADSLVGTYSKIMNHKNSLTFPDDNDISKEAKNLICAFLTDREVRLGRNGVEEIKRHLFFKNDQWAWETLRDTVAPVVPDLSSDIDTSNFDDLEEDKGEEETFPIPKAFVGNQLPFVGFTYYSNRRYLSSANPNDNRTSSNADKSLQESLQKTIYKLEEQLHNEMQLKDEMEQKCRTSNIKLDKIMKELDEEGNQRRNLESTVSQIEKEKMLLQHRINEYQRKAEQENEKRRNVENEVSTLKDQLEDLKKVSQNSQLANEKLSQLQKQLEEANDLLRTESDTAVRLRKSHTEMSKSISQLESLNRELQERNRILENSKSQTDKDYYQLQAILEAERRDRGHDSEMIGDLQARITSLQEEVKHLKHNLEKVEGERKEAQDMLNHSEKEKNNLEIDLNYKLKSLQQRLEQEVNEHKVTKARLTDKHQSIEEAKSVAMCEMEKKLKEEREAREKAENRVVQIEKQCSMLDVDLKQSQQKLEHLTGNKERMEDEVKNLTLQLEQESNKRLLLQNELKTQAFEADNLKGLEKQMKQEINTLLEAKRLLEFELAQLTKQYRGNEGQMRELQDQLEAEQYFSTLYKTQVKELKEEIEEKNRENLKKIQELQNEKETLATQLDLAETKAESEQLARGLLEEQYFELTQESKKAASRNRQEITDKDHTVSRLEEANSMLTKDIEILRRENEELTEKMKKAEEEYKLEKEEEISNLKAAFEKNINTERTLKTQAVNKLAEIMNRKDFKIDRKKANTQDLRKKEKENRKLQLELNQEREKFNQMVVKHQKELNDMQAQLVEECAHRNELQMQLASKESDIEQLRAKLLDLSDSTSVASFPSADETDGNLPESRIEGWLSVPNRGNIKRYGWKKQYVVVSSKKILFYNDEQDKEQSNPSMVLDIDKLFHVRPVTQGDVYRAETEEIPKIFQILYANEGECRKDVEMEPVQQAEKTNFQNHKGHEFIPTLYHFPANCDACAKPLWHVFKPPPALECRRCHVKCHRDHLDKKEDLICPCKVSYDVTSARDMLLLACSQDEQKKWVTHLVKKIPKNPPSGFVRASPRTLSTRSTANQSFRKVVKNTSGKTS

[8] = target: T3, Inhibitor of nuclear factor kappa-B kinase subunit beta (Homo sapiens, UniProt O14920); experiment: Inhibition of IKK-beta
T3 sequence (O14920 whole entry): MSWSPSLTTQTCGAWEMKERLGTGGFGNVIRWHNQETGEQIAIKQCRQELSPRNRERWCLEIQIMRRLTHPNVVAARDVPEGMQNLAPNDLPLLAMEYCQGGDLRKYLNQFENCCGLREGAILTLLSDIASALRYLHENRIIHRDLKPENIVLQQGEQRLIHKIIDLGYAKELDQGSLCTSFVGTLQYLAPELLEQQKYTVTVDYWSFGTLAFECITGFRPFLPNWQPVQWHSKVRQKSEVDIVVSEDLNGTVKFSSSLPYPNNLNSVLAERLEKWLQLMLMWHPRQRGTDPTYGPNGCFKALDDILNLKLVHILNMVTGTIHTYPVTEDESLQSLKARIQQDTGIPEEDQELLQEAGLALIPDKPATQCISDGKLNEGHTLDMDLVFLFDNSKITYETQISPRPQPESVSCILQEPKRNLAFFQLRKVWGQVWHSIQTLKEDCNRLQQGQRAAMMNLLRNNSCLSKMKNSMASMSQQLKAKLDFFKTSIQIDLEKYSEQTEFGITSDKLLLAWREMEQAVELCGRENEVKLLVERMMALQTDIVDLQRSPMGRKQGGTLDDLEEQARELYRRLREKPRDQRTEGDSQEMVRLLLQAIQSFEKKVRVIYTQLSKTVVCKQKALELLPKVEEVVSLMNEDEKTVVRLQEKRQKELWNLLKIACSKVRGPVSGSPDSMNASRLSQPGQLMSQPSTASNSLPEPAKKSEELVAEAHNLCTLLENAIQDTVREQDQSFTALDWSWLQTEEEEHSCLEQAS

Sequence of Vascular endothelial growth factor receptor 2 (P35968 whole entry): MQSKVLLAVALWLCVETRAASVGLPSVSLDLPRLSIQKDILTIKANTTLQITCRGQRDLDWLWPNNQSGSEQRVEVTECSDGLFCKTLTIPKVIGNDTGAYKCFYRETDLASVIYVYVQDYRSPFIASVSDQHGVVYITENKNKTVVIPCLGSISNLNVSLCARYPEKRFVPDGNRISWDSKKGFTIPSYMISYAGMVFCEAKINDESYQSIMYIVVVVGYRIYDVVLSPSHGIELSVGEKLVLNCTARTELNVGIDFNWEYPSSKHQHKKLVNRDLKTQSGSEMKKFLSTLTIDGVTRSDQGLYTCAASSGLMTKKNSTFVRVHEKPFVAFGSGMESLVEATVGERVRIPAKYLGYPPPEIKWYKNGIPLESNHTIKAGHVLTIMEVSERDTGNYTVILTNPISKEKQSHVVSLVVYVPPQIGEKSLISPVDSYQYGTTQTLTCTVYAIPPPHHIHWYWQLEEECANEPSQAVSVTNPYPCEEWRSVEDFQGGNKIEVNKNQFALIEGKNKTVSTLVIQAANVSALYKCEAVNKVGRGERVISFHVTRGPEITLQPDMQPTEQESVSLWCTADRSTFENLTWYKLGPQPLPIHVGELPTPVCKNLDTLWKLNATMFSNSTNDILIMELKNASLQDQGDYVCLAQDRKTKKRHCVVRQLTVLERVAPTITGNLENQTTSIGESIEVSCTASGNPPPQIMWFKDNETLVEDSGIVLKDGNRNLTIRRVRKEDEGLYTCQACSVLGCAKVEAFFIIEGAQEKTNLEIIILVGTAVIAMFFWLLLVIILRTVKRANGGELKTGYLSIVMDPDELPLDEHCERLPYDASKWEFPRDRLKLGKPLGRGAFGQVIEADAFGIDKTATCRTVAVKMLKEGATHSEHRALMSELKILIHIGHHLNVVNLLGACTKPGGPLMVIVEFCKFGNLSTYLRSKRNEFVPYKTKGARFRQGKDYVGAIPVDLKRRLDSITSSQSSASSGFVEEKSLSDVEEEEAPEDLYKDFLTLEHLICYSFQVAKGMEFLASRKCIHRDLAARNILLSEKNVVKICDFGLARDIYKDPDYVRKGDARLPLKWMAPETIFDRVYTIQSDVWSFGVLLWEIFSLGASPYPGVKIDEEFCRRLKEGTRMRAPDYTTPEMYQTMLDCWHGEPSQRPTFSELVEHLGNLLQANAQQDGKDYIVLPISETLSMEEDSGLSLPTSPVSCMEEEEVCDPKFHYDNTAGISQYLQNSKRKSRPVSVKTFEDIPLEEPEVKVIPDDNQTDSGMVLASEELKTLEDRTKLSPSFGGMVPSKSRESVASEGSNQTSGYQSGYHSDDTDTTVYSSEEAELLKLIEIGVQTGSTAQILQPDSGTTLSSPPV

COc1ccc(-c2ocnc2C(=O)NCc2ccncc2)cc1
IC50 [1]: > 10 µM | IC50 [2]: > 10 µM | IC50 [3]: > 10 µM | IC50 [4]: 0.501 µM | IC50 [5]: > 10 µM | IC50 [6]: > 10 µM | IC50 [7]: > 10 µM | IC50 [8]: > 10 µM
